Like-named read-outs stand apart in the source and are kept apart here.
How the values were obtained:
[1] = system: SMN2 minigene (full length SMN2 minigene mRNA containing SMN2 exon 7); experiment: SMN2 minigene mRNA splicing RT-qPCR assay in cultured cells; type: cell-based, human; conditions: Homo sapiens, HEK293-H, read-out: EC1.5x for production of full length SMN2 mRNA
Summary of the method: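 Read-out: full-length (exon 7-included) SMN2 minigene mRNA by multiplex RT-qPCR with GAPDH, efficiency-corrected (1+E)^−Ct, GAPDH-normalized and divided by vehicle. Stably transfected HEK293H cells, 24 h compound exposure, duplicates per concentration. Value is EC1.5x, reported as star ranges.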

[2] = system: Smn protein; experiment: Smn protein assay in cultured cells (SMN HTRF); type: cell-based, human; conditions: 48 hours; for maximum fold (Fold) increase of Smn protein: SMA patient fibroblast cells, 7-point concentration data, fold increase relative to vehicle control (SMN HTRF); for EC1.5x (concentration giving 1.5-fold Smn protein increase): SMA Type 1 patient fibroblast cells (GM03813), 7-point concentration curve, SMN HTRF, concentration producing 1.5 times Smn protein vs DMSO vehicle control, read-out: EC1.5x for Smn protein expression
Summary of the method: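 Lysates in RIPA with protease inhibitors are incubated overnight at room temperature with HTRF anti-SMN antibodies. EC1.5x is derived from fold increase in ΔF over vehicle.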

[3] = HEK293H cells stably transfected with SMN2-A minigene, 24 hours, 7-point concentration curve, 1.5-fold relative to vehicle-treated cells

Compound | melting point [°C] | EC (1.5-fold) [1, 3] [µM] | maximum fold (Fold) increase of Smn protein [2] | EC1.5x (concentration giving 1.5-fold Smn protein increase) [2] [nM] | EC (1.5-fold) ([1]; 24 h) [µM]
Cc1cccn2cc(-c3cc4ccc(N5CCCNCC5)cc4oc3=O)nc12 [Compound 281, 7-(1,4-diazepan-1-yl)-3-(8-methylimidazo[1,2-a]pyridin-2-yl)-2H-chromen-2-one] | 138 to 140 | 0.3 to 1 | ** (fold increase between >1.2 and ≤1.35) |  | 
CNCc1ccc2cc(-c3nc4ccccc4s3)c(=O)oc2c1 [Compound 78, 3-(1,3-benzothiazol-2-yl)-7-[(methylamino)methyl]-2H-chromen-2-one] | 156 to 160 | 0.3 to 1 | *** (fold increase between >1.35 and ≤1.5) |  | 
Cc1ccc2nc(-c3cc4ccc(CN5CCC(O)C5)cc4oc3=O)cn2c1 (centres unmarked) [Compound 253, 7-[(3-hydroxypyrrolidin-1-yl)methyl]-3-(6-methylimidazo[1,2-a]pyridin-2-yl)-2H-chromen-2-one] | 227 to 230 | 1 to 3 | * (maximum fold increase of ≤1.2) |  | 
Cc1cn2cc(-c3cc4ccc(N5CCCN(C)CC5)cc4oc3=O)cnc2n1 [Compound 662, 7-(4-methyl-1,4-diazepan-1-yl)-3-(2-methylimidazo[1,2-a]pyrimidin-6-yl)-2H-chromen-2-one] | 286 to 289 | < 0.1 | *** (fold increase between >1.35 and ≤1.5) | 1000 to 3000 | 
CN1CCN(c2ccc3cc(-c4cn5cccc(F)c5n4)c(=O)oc3c2)CC1 [Compound 150, 3-(8-fluoroimidazo[1,2-a]pyridin-2-yl)-7-(4-methylpiperazin-1-yl)-2H-chromen-2-one] | 278 to 280 | 0.3 to 1 | *** (fold increase between >1.35 and ≤1.5) | 3000 to 10000 | 
C[C@@H]1CN(c2ccc3cc(-c4cn5ccc(C(F)(F)F)cc5n4)c(=O)oc3c2)CCN1 [Compound 267, 7-[(3R)-3-methylpiperazin-1-yl]-3-[7-(trifluoromethyl)imidazo[1,2-a]pyridin-2-yl]-2H-chromen-2-one] | 252 to 260 | 1 to 3 | * (maximum fold increase of ≤1.2) |  | 
Cc1ccc(-c2cc3ccc(N4CCNCC4)cc3oc2=O)cn1 [Compound 163, 3-(6-methylpyridin-3-yl)-7-(piperazin-1-yl)-2H-chromen-2-one] | 148 to 150 |  | * (maximum fold increase of ≤1.2) |  | 3 to 30
C[C@@H]1CN(c2ccc3cc(-c4cn5cccc(Cl)c5n4)c(=O)oc3c2)CCN1 [Compound 183, 3-(8-chloroimidazo[1,2-a]pyridin-2-yl)-7-[(3R)-3-methylpiperazin-1-yl]-2H-chromen-2-one] | 215 to 218 | 0.3 to 1 | ** (fold increase between >1.2 and ≤1.35) |  | 
Cc1nc2ccc(-c3cc4ccc(N5CCNCC5)cc4oc3=O)cc2o1 [Compound 695, 3-(2-methyl-1,3-benzoxazol-6-yl)-7-(piperazin-1-yl)-2H-chromen-2-one] | 200 to 205 | < 0.1 | *** (fold increase between >1.35 and ≤1.5) |  | 

Continued, in another order:

melting point [°C] | Compound | EC (1.5-fold) [1, 3] [µM] | maximum fold (Fold) increase of Smn protein [2] | EC1.5x (concentration giving 1.5-fold Smn protein increase) [2] [nM] | EC (1.5-fold) ([1]; 24 h) [µM]
282 to 291 | Cc1cn2cc(-c3cc4ccc(N5C[C@H]6CCCN[C@H]6C5)cc4oc3=O)nc2cn1 [Compound 719, 3-(6-methylimidazo[1,2-a]pyrazin-2-yl)-7-[(4aR,7aR)-octahydro-6H-pyrrolo[3,4-b]pyridin-6-yl]-2H-chromen-2-one] | < 0.1 | ** (fold increase between >1.2 and ≤1.35) |  | 
217 to 223 | Cc1cn2cc(-c3cc4ccc(C5CCN(C6COC6)CC5)cc4oc3=O)nc2c(C)n1 [Compound 855, 3-(6,8-dimethylimidazo[1,2-a]pyrazin-2-yl)-7-[1-(oxetan-3-yl)piperidin-4-yl]-2H-chromen-2-one] | < 0.1 | ***** (fold increase >1.65) | < 300 | 
217 to 220 | CN1CCCN(c2ccc3cc(-c4nc5ccccc5s4)c(=O)oc3c2)CC1 [Cpd 145, 3-(1,3-benzothiazol-2-yl)-7-(4-methyl-1,4-diazepan-1-yl)-2H-chromen-2-one] | 0.1 to 0.3 | ** (fold increase between >1.2 and ≤1.35) |  | 
187 to 190 | Cc1cn2cc(-c3cc4ccc(OCCN5CCC(O)CC5)cc4oc3=O)nc2c(C)n1 [Compound 957, 3-(6,8-dimethylimidazo[1,2-a]pyrazin-2-yl)-7-[2-(4-hydroxypiperidin-1-yl)ethoxy]-2H-chromen-2-one] | < 0.1 | **** (fold increase between >1.5 and ≤1.65) | 300 to 1000 | 
206 to 211 | Cc1cn2cc(-c3cc4ccc(C5CCN(C(C)C)CC5)cc4oc3=O)nc2c(C)n1 [Cpd 773, 3-(6,8-dimethylimidazo[1,2-a]pyrazin-2-yl)-7-[1-(propan-2-yl)piperidin-4-yl]-2H-chromen-2-one] | < 0.1 | **** (fold increase between >1.5 and ≤1.65) | < 300 | 
176 to 178 | Cc1cn2cc(-c3cc4ccc(CCCN(C)C)cc4oc3=O)ccc2n1 [Cpd 908, 7-[3-(dimethylamino)propyl]-3-(2-methylimidazo[1,2-a]pyridin-6-yl)-2H-chromen-2-one] | 0.1 to 0.3 | ***** (fold increase >1.65) | 300 to 1000 | 
146 to 150 | Cc1cn2cc(-c3cc4ccc(N5C[C@H]6CN(C)C[C@H]6C5)cc4oc3=O)cc2c(C)n1 [Compound 756, 3-(1,3-dimethylpyrrolo[1,2-a]pyrazin-7-yl)-7-[(3aR,6aS)-5-methylhexahydropyrrolo[3,4-c]pyrrol-2(1H)-yl]-2H-chromen-2-one] | < 0.1 | *** (fold increase between >1.35 and ≤1.5) |  | 
270 to 272 | Cc1cn2cc(-c3cc4ccc(N5C[C@H](O)[C@@H](N(C)C)C5)cc4oc3=O)nc2c(C)n1 [Compound 738, 7-[(3S,4S)-3-(dimethylamino)-4-hydroxypyrrolidin-1-yl]-3-(6,8-dimethylimidazo[1,2-a]pyrazin-2-yl)-2H-chromen-2-one] | < 0.1 | ***** (fold increase >1.65) | < 300 | 
147 to 151 | Cc1cn2cc(-c3cc4ccc(CCCCN5CCC[C@@H]5CO)cc4oc3=O)nc2c(C)n1 [Compound 904, 3-(6,8-dimethylimidazo[1,2-a]pyrazin-2-yl)-7-{4-[(2R)-2-(hydroxymethyl)pyrrolidin-1-yl]butyl}-2H-chromen-2-one] | 0.1 to 0.3 | **** (fold increase between >1.5 and ≤1.65) | 300 to 1000 | 

Source: patent USRE47689E1, “Compounds for treating spinal muscular atrophy” (PTC Therapeutics, Inc., priority 2011, dated 2019)
